Measured values: patent publication US20230174988A1, “METHODS FOR INDUCING BILE ACID SULFOTRANSFERASE SULT2A FOR TREATING METABOLIC DISORDERS” (priority 2020, published 2023)
Entries after “also recorded” stand apart in the source; their conditions may differ. Like-named read-outs stand apart in the source and are kept apart here.

How the values were obtained:
DIO mice [1] = assay: acute treatment of DIO mice via duodenal and rectal catheters: GLP-1 and blood glucose; format: in vivo, mouse; conditions: HFD-fed (DIO) mice, 1 mg CA7S vs PBS, within 15 min
NCI-H716 cells [2] = assay: GLP-1 secretion in NCI-H716 cells in vitro; format: cell-based, human; conditions: for GLP-1 secretion in vitro by CA7S extracted from cecal contents of SG mice: purified CA7S 500 μM vs DMSO
Description: TGR5 agonism also results in elevated intracellular calcium levels^19.

NCI-H716 cells [3] = assay: intracellular calcium levels in NCI-H716 cells; format: cell-based, human; conditions: NCI-H716 (L-cells)
Caco-2 cells = assay: cell viability of Caco-2 cells; format: cell-based, human; conditions: concentrations up to 3 mM
macrophage = macrophage cell viability; format: cell-based
macrophages = assay: IL-10 secretion from macrophages in vitro; format: cell-based
NF-kB = NF-kB reporter assay in THP1-Blue cells; format: cell-based, human; conditions: LPS-induced inflammation
in vivo = conditions: mouse, 1 mg
[4] = stability after incubation at 37° C. in buffer at physiological pHs (UPLC-MS); format: physicochemical
SULT2A1 = SULT2A1 expression in HepG2 cells (qRT-PCR); format: cell-based; conditions: normalized to human GAPDH
TGR5 = target: T1, TGR5 (Homo sapiens, UniProt Q8TDU6); assay: relative TGR5 expression (FIG. 40); format: cell-based
T1 sequence (Q8TDU6 1-330): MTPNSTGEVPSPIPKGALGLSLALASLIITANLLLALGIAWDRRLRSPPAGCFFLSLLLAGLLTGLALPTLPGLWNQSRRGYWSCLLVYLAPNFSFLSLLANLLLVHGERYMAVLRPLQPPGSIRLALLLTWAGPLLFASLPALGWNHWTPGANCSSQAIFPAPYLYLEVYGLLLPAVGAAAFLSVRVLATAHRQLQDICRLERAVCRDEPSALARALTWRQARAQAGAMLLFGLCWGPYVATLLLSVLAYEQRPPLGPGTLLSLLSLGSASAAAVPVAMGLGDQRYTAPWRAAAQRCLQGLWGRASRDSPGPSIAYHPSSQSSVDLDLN
Description: FIG. 40B-D show the relative TGR5 expression of the various compounds.

ASBT = ASBT expression in Caco-2 cells; format: cell-based, human; parameters: dose or concentration left out as unconfirmed; conditions: LCA
DIO mice [5] = assay: portal vein injection of LCA in DIO mice; format: in vivo, mouse; conditions: LCA 50 μM into portal vein
GF mice = GF mice administered 0.3% LCA (w/w) in chow for 1 week; format: in vivo, mouse; conditions: 0.3% LCA in chow
[6] = listed as cholic acid 7-sulfate
[7] = listed as Cholic acid 7-sulfate
[8] = HFD-fed mice, acute cholic acid 7-sulfate treatment

C[C@H](CCC(=O)O)[C@H]1CC[C@H]2[C@@H]3[C@H](OS(=O)(=O)O)C[C@@H]4C[C@H](O)CC[C@]4(C)[C@H]3C[C@H](O)[C@]12C [CA7S, cholic acid 7-sulfate]
blood glucose levels (DIO mice [1]): reduced blood glucose levels
systemic GLP-1 levels (DIO mice [1]): increased systemic GLP-1 levels
systemic GLP-1 levels (DIO mice [1]; [6]): induced GLP-1 levels
GLP-1 secretion in vitro (NCI-H716 cells [2]): induced GLP-1 secretion to a similar degree as TDCA in a dose-dependent manner
GLP-1 secretion in vitro (NCI-H716 cells [2]; [7]): induces GLP-1 secretion in vitro better than the known GLP-1 inducer TDCA
GLP-1 secretion in vitro by CA7S extracted from cecal contents of SG mice (NCI-H716 cells [2]): induced GLP-1 secretion in vitro
GLP-1 secretion in vitro by CA7S extracted from cecal contents of SG mice (NCI-H716 cells [2]; [6]): exhibit activity inducing GLP-1 secretion in vitro
Cholic acid 7-sulfate concentration (mean ± SEM), Cecum [8]: 2577 ± 185.3 pmol/mg
Cholic acid 7-sulfate concentration (mean ± SEM), Hepatic portal vein [8]: 6.128 ± 2.111 pmol/mg
CA7S in cecal contents (administration of 1 mg, on average): 2500 pmol/mg wet mass
leak into systemic circulation and portal vein (gut restriction) (ectopic introduction in mice, listed as cholic acid 7-sulfate): only minor amounts
intracellular calcium levels (NCI-H716 cells [3]): dose-dependent increase in calcium levels
intracellular calcium levels (NCI-H716 cells [3]; [7]): increased calcium levels
toxicity / viability of intestinal Caco-2 cells (Caco-2 cells): does not affect the viability
toxicity / viability of intestinal Caco-2 cells (Caco-2 cells; [7]): no toxicity
inflammation in vivo (inflammation in vivo): improves inflammation in vivo
macrophage cell viability (macrophage): does not affect macrophage cell viability
IL-10 secretion (macrophages): induces secretion of the anti-inflammatory cytokine IL-10
NFkB activation (NF-kB): reduces NFkB activation
concentration at 15 min (in vivo; Cholic acid 7-sulfate concentration (mean ± SEM), Blood, HFD-fed mice, acute cholic acid 7-sulfate treatment): 0.495 ± 0.167 µM
concentration at 15 min (in vivo; cholic acid 7-sulfate in the cecum, dosing with 1 mg): ~2500 µM
stability at physiological pHs [4]: stable at physiological pHs
stability at physiological pHs [4, 7]: stable in a wide range of pHs

C[C@H](CCC(=O)O)[C@H]1CC[C@H]2[C@@H]3[C@H](O)C[C@@H]4C[C@H](O)CC[C@]4(C)[C@H]3C[C@H](O)[C@]12C [CA, cholic acid, reference compound]
GLP-1 secretion in vitro (NCI-H716 cells [2]): had no effect on GLP-1 secretion
GLP-1 secretion in vitro (NCI-H716 cells [2]; listed as cholic acid): had no effect
SULT2A1 expression (SULT2A1): did not induce SULT2A1 expression at all concentrations tested

C[C@H](CCC(=O)O)[C@H]1CC[C@H]2[C@@H]3[C@H](O)C[C@@H]4C[C@H](O)CC[C@]4(C)[C@H]3CC[C@]12C [CDCA, chenodeoxycholic acid]
SULT2A1 expression (SULT2A1): did not induce SULT2A1 expression at all concentrations tested

COC(=O)CC[C@@H](C)[C@H]1CC[C@H]2[C@@H]3[C@H](NS(=O)(=O)O)[C@@H](O[Si](C)(C)C(C)(C)C)[C@@H]4C[C@H](O[Si](C)(C)C(C)(C)C)CC[C@]4(C)[C@H]3CC[C@]12C [Compound 3-8]
TGR5 expression (TGR5): induces TGR5 expression

C[C@H](CCC(=O)O)[C@H]1CC[C@H]2[C@@H]3[C@H](OP(=O)(O)O)C[C@@H]4C[C@H](O)CC[C@]4(C)[C@H]3C[C@H](O)[C@]12C [Compound 9, cholic acid-7-phosphate]
TGR5 expression (TGR5): induces TGR5 expression

COC(=O)CC[C@@H](C)[C@H]1CC[C@H]2[C@@H]3[C@H](OP(=O)(OCc4ccccc4)OCc4ccccc4)C[C@@H]4C[C@H](O[Si](C)(C)C(C)(C)C)CC[C@]4(C)[C@H]3CC[C@]12C [Compound 9-2]
TGR5 expression (TGR5): induces TGR5 expression

C[C@H](CCC(=O)O)[C@H]1CC[C@H]2[C@@H]3CC[C@@H]4C[C@H](O)CC[C@]4(C)[C@H]3CC[C@]12C [LCA, 3α-hydroxy-5β-cholan-24-oic acid]
ASBT expression (ASBT): inhibited expression of ASBT
CA7S levels in the gallbladder (DIO mice [5]): increase in CA7S levels in the gallbladder
SULT2A1 expression level in mouse liver (DIO mice [5]; two hours after injection): significant increase
VDR expression level in mouse liver (DIO mice [5]; two hours after injection): significant increase
Asbt expression in SI and DI (GF mice): inhibited expression of Asbt in SI and DI
VDR expression in liver (GF mice): increased expression
mSult2A1 expression in liver (GF mice): increased expression
LCA levels in intestine after feeding (GF mice; 1 week): accumulation of LCA in the proximal small intestine (SI), distal ileum (DI), and cecum
CA7S production and accumulation (GF mice; gallbladder and distal ileum): induced CA7S production and accumulation in the gallbladder (GB) and the DI
SULT2A1 expression (SULT2A1): induced SULT2A1; also recorded: could induce SULT2A1 expression in a dose dependent manner

C[C@H](CCC(=O)NCCS(=O)(=O)O)[C@H]1CC[C@H]2[C@@H]3CC[C@@H]4C[C@H](O)CC[C@]4(C)[C@H]3C[C@H](O)[C@]12C [TCDCA, taurodeoxycholic acid]
SULT2A1 expression (SULT2A1): did not induce SULT2A1 expression at all concentrations tested
